# Active and inactive are the calls of the source.
# Key:
# [1] = target: T1, Hepatocyte nuclear factor 4-alpha (Homo sapiens, UniProt P41235); type: functional, cell-based;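 note: biochemical luminescence-based dose-response counterscreen measuring inhibition of HNF4 dimerization, run alongside a screen for blockers of ABHD5–perilipin-5 interaction; split luciferase complementation of HNF4 fusion proteins in cell lysate measuring dimerization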
# T1 sequence (P41235 whole entry): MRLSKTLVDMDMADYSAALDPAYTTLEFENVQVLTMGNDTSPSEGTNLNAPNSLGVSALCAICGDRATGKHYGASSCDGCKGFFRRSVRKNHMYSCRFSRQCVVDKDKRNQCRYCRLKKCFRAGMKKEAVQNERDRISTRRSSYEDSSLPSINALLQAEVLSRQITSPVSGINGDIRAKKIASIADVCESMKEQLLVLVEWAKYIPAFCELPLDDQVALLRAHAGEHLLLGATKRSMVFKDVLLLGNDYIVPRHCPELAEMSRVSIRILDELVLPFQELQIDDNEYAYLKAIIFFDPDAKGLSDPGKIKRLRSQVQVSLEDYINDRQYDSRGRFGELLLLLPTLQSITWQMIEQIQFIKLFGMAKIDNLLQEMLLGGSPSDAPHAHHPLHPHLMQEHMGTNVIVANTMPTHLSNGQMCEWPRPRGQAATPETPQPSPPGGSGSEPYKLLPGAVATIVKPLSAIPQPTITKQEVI
# CHO-K1 = assay: (§1) Counterscreen for antagonists of the orexin 1 receptor (OX1R; HCRTR1): Homogeneous time resolved fluorescence (HTRF)-based cell-based dose response assay to identify antagonists of the parental CHO-K1 cell line. [Related pubchem assays (depositor defined):AID434989, AID435008, AID463079, AID485270, AID492963, AID492964, AID492965, AID493232, AID504699, AID504701]; type: functional; conditions: Cricetulus griseus
# [2] = as §1, with “Fluorescence-based” for “Homogeneous time resolved fluorescence (HTRF)-based”, “cell-based high throughput” for “cell-based”, “CHO” for “CHO-K1”; type: functional
# [3] = target: T2, Orexin/Hypocretin receptor type 1 (Homo sapiens, UniProt O43613); assay: Homogeneous Time Resolved Fluorescence (HTRF)-based cell-based high throughput dose response assay for antagonists of the orexin 1 receptor (OX1R; HCRTR1). [Related pubchem assays (depositor defined):AID434989, AID435008, AID463079, AID485270, AID492963, AID492964, AID492965, AID493232, AID504717, AID504718]; type: functional
# T2 sequence (O43613 whole entry): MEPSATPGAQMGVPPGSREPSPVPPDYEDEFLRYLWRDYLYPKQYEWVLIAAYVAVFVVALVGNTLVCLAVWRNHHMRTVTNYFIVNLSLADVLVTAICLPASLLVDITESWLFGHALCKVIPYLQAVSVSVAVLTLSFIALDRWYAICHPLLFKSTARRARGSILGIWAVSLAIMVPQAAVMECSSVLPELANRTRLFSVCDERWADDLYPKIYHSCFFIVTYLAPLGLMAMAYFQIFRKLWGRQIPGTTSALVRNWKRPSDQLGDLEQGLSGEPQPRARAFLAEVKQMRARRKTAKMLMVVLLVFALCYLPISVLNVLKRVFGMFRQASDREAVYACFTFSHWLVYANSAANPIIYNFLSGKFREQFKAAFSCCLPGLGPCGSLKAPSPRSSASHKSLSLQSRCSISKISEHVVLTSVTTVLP
# [4] = target: T2, Orexin/Hypocretin receptor type 1; assay: Fluorescence-based cell-based high throughput dose response assay for antagonists of the orexin 1 receptor (OX1R; HCRTR1). [Related pubchem assays (depositor defined):AID434989, AID435008, AID463079, AID485270, AID492963, AID492964, AID492965, AID493232, AID504717, AID504718]; type: functional
# Orexin receptor type 2 [5] = target: T3, Orexin receptor type 2 (Homo sapiens, UniProt O43614); assay: Counterscreen assay for antagonists of the orexin 1 receptor (OX1R; HCRTR1): Fluorescence-based cell-based dose response assay for antagonists of the orexin 2 receptor (OX2R; HCRTR2), run by assay provider.; type: functional
# T3 sequence (O43614 whole entry): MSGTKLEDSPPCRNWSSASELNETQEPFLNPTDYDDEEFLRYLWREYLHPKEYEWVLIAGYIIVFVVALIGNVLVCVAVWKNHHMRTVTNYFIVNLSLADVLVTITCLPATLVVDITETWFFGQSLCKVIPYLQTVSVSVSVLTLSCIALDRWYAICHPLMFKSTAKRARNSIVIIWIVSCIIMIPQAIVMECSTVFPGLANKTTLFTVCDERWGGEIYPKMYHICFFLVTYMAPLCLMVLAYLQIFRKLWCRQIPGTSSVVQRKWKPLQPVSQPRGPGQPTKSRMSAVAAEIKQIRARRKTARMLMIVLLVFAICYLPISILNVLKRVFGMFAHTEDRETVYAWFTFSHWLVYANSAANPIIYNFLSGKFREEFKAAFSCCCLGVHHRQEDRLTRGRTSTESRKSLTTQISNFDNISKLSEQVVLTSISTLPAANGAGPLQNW
# Orexin receptor type 2 [6] = target: T3, Orexin receptor type 2; assay: Counterscreen assay for antagonists of the orexin 1 receptor (OX1R; HCRTR1): Homogeneous Time Resolved Fluorescence (HTRF)-based cell-based dose response assay for antagonists of the orexin 2 receptor (OX2R; HCRTR2), run by assay provider.; type: functional
# [7] = target: T4, High affinity choline transporter 1 (Homo sapiens, UniProt Q9GZV3); assay: CHT inhibitors, dose response, cell-based, 5-point CRC, membrane potential dye (AID 504840); type: functional
# T4 sequence (Q9GZV3 whole entry): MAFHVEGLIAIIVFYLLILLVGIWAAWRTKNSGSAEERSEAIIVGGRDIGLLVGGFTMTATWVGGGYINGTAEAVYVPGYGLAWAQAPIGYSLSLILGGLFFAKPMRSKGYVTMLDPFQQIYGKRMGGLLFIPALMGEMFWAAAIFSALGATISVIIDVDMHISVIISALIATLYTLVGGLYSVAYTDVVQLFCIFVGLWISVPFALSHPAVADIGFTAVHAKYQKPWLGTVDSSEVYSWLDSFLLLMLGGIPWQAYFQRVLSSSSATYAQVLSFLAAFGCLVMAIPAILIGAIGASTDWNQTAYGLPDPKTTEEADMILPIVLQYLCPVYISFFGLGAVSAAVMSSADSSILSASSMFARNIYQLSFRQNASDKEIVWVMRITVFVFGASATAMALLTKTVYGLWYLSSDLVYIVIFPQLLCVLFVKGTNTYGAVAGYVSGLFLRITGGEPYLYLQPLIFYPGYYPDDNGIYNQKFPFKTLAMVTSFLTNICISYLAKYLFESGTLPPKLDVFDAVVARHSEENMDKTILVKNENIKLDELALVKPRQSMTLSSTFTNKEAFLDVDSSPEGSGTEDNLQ
# [8] = inhibitors of intracellular T. cruzi replication, confirmation, NIH3T3 host cells, beta-gal luminescence (AID 2044); type: functional, cell-based;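 note: intracellular parasites grown in NIH/3T3 mouse fibroblasts as host cells; luminescent beta-galactosidase reporter signal from transgenic T. cruzi replicating inside host cells; inhibitors lower the luminescence signal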
# [9] = cytotoxicity toward NIH3T3 fibroblasts, dose response, counter-screen, cell-based, ATP luminescence, mouse fibroblasts (AID 2010); type: functional;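 note: cells exposed to compound for about 90 hours before reading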
# [10] = Luminescence Cell-Based Dose Retest to Confirm Inhibitors of Cancer Stem Cells. [Related pubchem assays (depositor defined):AID2717, AID2721]; type: functional; conditions: Homo sapiens
# [11] = target: T5, Heat shock factor protein 1 (Mus musculus, UniProt P38532); assay: HSF1 potentiators in luciferase reporter cells, confirmation, cell-based, NIH3T3, luminescence, dose retest (AID 435004); type: functional;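 note: stress induced by proteasome inhibitor MG132 added 30 min after compound; luciferase reporter driven by HSF1 response element in NIH3T3 cells; actives raise luminescence as potentiators of the MG132 stress response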
# T5 sequence (P38532 whole entry): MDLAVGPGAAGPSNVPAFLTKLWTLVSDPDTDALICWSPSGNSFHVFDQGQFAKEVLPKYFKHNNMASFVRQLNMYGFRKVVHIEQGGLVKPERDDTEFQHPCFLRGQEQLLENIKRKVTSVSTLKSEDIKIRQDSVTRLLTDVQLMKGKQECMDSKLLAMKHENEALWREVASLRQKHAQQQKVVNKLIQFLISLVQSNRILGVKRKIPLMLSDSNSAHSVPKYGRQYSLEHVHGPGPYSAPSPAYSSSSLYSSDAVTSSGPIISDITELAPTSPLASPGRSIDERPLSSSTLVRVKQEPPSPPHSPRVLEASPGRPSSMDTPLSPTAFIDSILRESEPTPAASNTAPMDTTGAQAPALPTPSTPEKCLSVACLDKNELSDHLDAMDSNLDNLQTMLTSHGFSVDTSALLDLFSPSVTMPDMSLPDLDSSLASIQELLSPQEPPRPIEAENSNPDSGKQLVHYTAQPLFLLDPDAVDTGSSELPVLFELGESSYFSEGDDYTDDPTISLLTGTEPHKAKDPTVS
# [12] = target: Heat shock protein HSP 90-alpha (Homo sapiens, UniProt P07900); type: functional, organism-based
# Vero [13] = assay: Vero cell cytotoxicity, cytotoxicity control for flavivirus capping enzyme inhibitors (AID 588742); type: functional; conditions: Chlorocebus sabaeus
# Vero [14] = assay: cells; type: functional; conditions: Chlorocebus sabaeus
# Genome polyprotein = Genome polyprotein (dengue virus type 2, UniProt P29990); assay: Dengue-2 NS5 methyltransferase inhibitors, primary screen, biochemical, confirmation dose response (AID 588689); type: functional
# Chain of Genome polyprotein (P29990 2492-3391 limits assumed): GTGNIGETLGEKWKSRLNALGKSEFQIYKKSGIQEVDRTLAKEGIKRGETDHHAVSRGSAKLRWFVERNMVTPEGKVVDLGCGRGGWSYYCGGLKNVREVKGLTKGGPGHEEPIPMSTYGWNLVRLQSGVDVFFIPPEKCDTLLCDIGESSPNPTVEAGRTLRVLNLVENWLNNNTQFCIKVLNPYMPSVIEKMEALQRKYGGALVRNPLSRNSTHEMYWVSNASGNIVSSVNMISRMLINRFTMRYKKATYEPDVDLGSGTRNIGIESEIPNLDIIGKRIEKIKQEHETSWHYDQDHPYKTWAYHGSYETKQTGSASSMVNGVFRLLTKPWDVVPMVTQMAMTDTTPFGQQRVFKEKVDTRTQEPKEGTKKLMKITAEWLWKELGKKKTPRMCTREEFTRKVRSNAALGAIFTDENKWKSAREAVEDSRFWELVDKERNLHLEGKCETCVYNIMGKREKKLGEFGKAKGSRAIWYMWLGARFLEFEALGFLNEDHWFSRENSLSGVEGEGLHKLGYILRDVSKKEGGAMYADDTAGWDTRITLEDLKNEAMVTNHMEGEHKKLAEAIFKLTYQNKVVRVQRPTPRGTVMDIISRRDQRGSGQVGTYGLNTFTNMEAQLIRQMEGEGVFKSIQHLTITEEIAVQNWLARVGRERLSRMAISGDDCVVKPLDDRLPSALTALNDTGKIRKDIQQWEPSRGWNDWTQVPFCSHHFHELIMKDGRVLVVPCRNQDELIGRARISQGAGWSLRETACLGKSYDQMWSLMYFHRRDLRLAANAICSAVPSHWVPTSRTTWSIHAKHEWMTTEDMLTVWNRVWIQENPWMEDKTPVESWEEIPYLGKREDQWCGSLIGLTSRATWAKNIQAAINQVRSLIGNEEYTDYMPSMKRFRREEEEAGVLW
# [15] = target: T6, Polyadenylate-binding protein 1 (Homo sapiens, UniProt P11940); assay: PABP1 MLLE–PAM2 interaction inhibitors, dose response, miRNA deadenylation inhibitor project, biochemical, fluorescence polarization, Cy5-PAM2 peptide, secondary (AID 602260); type: functional; conditions: read-out: IC50_Mean
# T6 sequence (P11940 whole entry): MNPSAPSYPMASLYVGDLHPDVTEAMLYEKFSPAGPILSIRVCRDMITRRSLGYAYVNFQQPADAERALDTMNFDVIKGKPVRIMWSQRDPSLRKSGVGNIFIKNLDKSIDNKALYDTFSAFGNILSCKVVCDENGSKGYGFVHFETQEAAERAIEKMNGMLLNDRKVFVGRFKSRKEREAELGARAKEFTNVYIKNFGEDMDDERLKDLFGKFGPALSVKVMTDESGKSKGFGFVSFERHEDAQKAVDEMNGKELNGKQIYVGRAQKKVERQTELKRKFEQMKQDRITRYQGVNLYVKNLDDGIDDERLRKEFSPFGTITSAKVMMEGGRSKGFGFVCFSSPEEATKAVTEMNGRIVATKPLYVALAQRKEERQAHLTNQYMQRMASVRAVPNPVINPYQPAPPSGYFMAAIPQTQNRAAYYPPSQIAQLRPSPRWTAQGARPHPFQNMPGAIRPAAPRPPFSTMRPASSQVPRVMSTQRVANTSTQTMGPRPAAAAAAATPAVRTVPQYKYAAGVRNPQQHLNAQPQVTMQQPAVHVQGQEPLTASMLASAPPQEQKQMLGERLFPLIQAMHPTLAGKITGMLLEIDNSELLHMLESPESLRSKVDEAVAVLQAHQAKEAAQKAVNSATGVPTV
# [16] = target: T6, Polyadenylate-binding protein 1; assay: PABP1 MLLE–PAM2 binding inhibitor potency, dose response, biochemical, fluorescence polarization, FITC-PAM2 peptide (AID 602259); type: functional; conditions: read-out: IC50_Mean
# [17] = target: T7, DNA repair and recombination protein RAD54-like (Homo sapiens, UniProt Q92698); assay: inhibitors of human RAD54 branch migration, confirmation, biochemical, fluorescence, cherry-picked samples, dose series (AID 651657); type: functional
# T7 sequence (Q92698 whole entry): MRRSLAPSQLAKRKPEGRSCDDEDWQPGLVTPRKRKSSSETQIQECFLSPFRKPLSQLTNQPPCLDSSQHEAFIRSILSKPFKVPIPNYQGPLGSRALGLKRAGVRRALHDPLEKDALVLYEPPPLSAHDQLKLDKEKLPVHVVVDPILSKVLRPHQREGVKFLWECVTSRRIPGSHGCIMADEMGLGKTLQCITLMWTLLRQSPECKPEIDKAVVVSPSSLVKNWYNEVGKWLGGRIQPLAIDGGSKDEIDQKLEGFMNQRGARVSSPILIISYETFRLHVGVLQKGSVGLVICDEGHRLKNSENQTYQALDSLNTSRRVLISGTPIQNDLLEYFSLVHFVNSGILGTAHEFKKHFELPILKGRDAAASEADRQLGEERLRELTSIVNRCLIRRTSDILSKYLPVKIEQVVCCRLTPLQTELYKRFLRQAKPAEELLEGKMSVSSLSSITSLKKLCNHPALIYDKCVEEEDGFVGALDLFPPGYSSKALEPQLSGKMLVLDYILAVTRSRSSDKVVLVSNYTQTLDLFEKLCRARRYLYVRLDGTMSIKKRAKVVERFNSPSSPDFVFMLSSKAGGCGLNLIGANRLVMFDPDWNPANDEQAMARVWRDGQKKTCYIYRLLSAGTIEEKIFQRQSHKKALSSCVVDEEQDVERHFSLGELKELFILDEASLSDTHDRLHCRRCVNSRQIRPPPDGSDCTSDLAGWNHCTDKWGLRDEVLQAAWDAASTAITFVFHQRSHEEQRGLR
# Vero [18] = assay: Vero cell toxicity, dose response, cytotoxicity control, plate reader, cherry-pick samples (AID 687020); type: functional, cell-based; conditions: Chlorocebus sabaeus
smiles,measurement,setting,value
Cc1ccc(O)c(C(=O)C=Cc2ccccc2)c1,IC50,[1],4 µM (active)
CC(=C/c1ccccc1)/C=C1/SC(N2CCOCC2)=NC1=O,IC50,CHO-K1,40.7 µM (inactive)
same,IC50,[2],> 49.8 µM (inactive)
same,IC50,[3],0.51 µM (active)
same,IC50,[4],3.82 µM (active)
same,IC50,Orexin receptor type 2 [5],> 88.8 µM (inactive)
same,IC50,Orexin receptor type 2 [6],26 µM (inactive)
CCCCN(CCCC)CCNC(=O)c1cn(CC)c2ccc(S(=O)(=O)N(C)C3CCCCC3)cc2c1=O,IC50,[7],15.8 µM (active)
CC(C)(C)c1ccc(C(=O)CC(Sc2ccc(Cl)cc2)C(=O)O)cc1 (configuration not stated),EC50,[8],2.02 µM (active)
same,EC50,[9],> 60 µM (not active)
same,AC50,[10],4.12 µM (active)
same,EC50,[11],137 µM (active)
same,AC50,[12],4.71 µM (active)
same,IC50,[7],12.6 µM (active)
same,CC50,Vero [13],35.9 µM (active)
same,CC50,Vero [14],23.2 µM (active)
same,IC50,Genome polyprotein,38.1 µM (active)
same,IC50,[15],> 66 µM (inactive)
same,IC50,[16],> 66 µM (inactive)
Cc1noc(C)c1COC(=O)c1ccc2c(c1)S(=O)(=O)c1ccccc1C2=O,IC50,CHO-K1,18.5 µM (inactive)
same,IC50,[2],> 49.7 µM (inactive)
same,IC50,[3],1.2 µM (active)
same,IC50,[4],4 µM (active)
same,IC50,Orexin receptor type 2 [5],> 88.8 µM (inactive)
same,IC50,Orexin receptor type 2 [6],> 50 µM (inactive)
c1c[nH]c(CN2CCN(Cc3ncc[nH]3)CC2)n1,AC50,[17],63.3 µM (active)
CCN(Cc1ccccc1)S(=O)(=O)c1cc(C(=O)NC2CCCCCC2)ccc1OC,IC50,[7],0.575 µM (active)
Cc1c(C(=O)NCc2cccnc2)oc2ccc(S(=O)(=O)N3CC(C)CC(C)C3)cc12 (configuration not stated),AC50,Vero [18],32.4 µM (active)
Cc1c(C(=O)NCCSCc2cccc(C(F)(F)F)c2)cnn1-c1ccc(Cl)cc1,AC50,[12],7.25 µM (active)
Cc1cc(C)n2nc(-c3cccc(Br)c3)cc2n1,IC50,CHO-K1,> 66.2 µM (inactive)
same,IC50,[2],> 49.7 µM (inactive)
same,IC50,[3],2.05 µM (active)
same,IC50,[4],9.69 µM (active)
same,IC50,Orexin receptor type 2 [5],> 88.8 µM (inactive)
same,IC50,Orexin receptor type 2 [6],> 50 µM (inactive)
CCN1CCN(CCCNC(=O)c2cc3c(O)nc4ccccc4c3s2)CC1,AC50,[17],46.5 µM (active)
N#Cc1ccc(C(C(=O)Nc2ccc3c(c2)OCCO3)n2c(=O)c(-c3ccco3)nc3ccccc32)cc1 (configuration not stated),IC50,[1],9.98 µM (active)

# Source: ChEMBL document CHEMBL1201862, “PubChem BioAssay data set” (2004)
